Read-outs that look alike come from different tables or passages of the source.
Columns and labels:
[1] = target: T1, ferroportin (Fpn) (Homo sapiens, UniProt Q9NP59); experiment: Inhibition of ferroportin mediated iron export activity in an iron response assay (BLA reporter, HEK-293 cell line #354); format: cell-based; conditions: for IC50: HEK-293 cell line #354, BLA reporter, tested as 3HCl-salts, n=3, read-out: Iron response (HEK354 Blazer) IC50; for EC50: average of multiple measurements, iron response assay, 3HCl-salts, read-out: BLAzer EC50
T1 construct: expressed in transfected cells; host or cells: HEK-293 cell line #354 (derivative of HEK-293 Tet-ON Advanced)
T1 sequence (Q9NP59 1-571): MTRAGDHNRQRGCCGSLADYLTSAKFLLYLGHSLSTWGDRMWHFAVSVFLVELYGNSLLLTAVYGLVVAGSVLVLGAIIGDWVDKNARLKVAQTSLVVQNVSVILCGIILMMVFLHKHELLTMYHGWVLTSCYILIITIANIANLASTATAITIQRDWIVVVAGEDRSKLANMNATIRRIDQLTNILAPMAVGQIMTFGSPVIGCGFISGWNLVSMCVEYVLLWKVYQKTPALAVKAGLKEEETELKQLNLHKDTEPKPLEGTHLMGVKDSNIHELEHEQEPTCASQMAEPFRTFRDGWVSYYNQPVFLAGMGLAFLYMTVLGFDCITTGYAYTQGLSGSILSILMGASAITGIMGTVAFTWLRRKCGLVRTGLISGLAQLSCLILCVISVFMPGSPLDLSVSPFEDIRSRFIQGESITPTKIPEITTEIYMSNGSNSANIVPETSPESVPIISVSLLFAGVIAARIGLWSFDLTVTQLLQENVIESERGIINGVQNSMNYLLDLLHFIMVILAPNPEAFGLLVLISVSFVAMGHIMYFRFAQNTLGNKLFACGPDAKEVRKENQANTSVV
Excerpt: Intracellular iron levels are indirectly measured in this assay by monitoring the activity of a beta-lactamase (BLA) reporter gene fused to the human ferritin promoter and the associated iron regulatory element (IRE) contained within the 5′ untranslated region of the ferritin mRNA. Expression of ferroportin (Fpn) in such a cell line leads to iron efflux and lower iron levels as reflected by lower activity of the reporter gene. On the other hand, inhibition of Fpn-mediated iron efflux results in elevated cellular iron levels which is detected as increased reporter gene activity. Small molecular weight Fpn inhibitor compounds were tested for dose-dependent effects in this in vitro iron response assay as described below.
The HEK-293 cell line #354 was generated by stable integration of (i) a human Fpn-GFP fusion construct inserted in a derivative of the doxycycline-inducible pTRE-Tight-BI plasmid (Clontech, Cat. 631068) and (ii) a human ferritin promoter-BLA reporter gene into a derivative of the HEK-293 Tet-ON Advanced cell line (Clontech). To generate the ferritin-BLA reporter gene construct, a 1.4 kb fragment of the human ferritin H promoter was amplified by PCR from human genomic DNA (forward primer 5′-[…]-3′; reverse primer 5′-GGCGGCGACTAAGGAGAGG-3′) and inserted in front of the BLA gene present in the pcDNA™6.2/cGeneBLAzer™-DEST plasmid (Invitrogen, Cat. 12578-043) thereby replacing the original CMV promoter and placing the IRE that regulates translation of the ferritin gene ca. 170 bp upstream of the start codon of the reporter gene. #354 cells were harvested from ca. 80% confluent cultures, seeded at 1.8x10^5 cells/ml in DMEM/F12 GlutaMAX™ medium (Invitrogen, Cat. 31331-028) containing 10% FBS (Clontech, Cat. 631106), 1% Penicillin-Streptomycin, 200 µg/ml Hygromycin B (Invitrogen, Cat. 10687-010), Blasticidin 5 µg/ml, (Invitrogen, Cat. R210-01), 4 µg/ml doxycycline (Clontech, Cat. 631311), 50 µl per well of 384 well PDL-coated plates and grown at 37° C. with 5% CO2. After overnight incubation, 10 µl/well of dilution series of the test compounds were added in quadruplicates and plates were further incubated overnight at 37° C. with 5% CO2. Cells were washed 3 times with HBSS leaving 25 µl per well. BLA activity was detected by adding 5 µl/well of the GeneBlazer reagent CCF4-AM (Invitrogen, Cat. K1085) to the cells. After incubation of the plates in the dark at 18° C. for 60 min., blue and green fluorescence signals were measured in a Safire2 fluorescence plate reader (Tecan) with excitation at 410 nm and emissions at 458 nm (blue) and 522 nm (green). The ratio of blue/green fluorescence as a measure for BLA activity was calculated and EC50 values were determined with the calculated blue/green fluorescence ratios as described for the hepcidin internalization assay.

[2] = target: T2, human Fpn-GFP fusion protein (Homo sapiens, UniProt Q9NP59); experiment: Ferroportin internalization and degradation assay (FACS, HEK-293 cell line #354); format: cell-based
T2 construct: expressed in transfected cells; host or cells: HEK-293 cell line #354 (derivative of HEK-293 Tet-ON Advanced)
T2 sequence (Q9NP59 1-571): T1 sequence (Q9NP59 1-571)
Protocol: HEK-293 cell line #354 (described in 11.3) was used to measure the capacity of the compounds to induce internalization and degradation of ferroportin (Fpn) by fluorescence activated cell sorting (FACS). Growing HEK-293 #354 cells in doxycycline containing media induced expression of human Fpn-GFP fusion protein on the cell surface. […] Small molecular weight Fpn inhibitor compounds were tested for dose-dependent effects on the Fpn-GFP mean fluorescence intensity (MFI) on HEK-293 cell line #354, as described below.
HEK#354 cells were harvested from ca. 80% confluent cultures, seeded at 0.6x10^6 cells/ml in DMEM/F12 GlutaMAX™ medium (Invitrogen, Cat. 31331-028) containing 10% FBS (Clontech, Cat. 631106), 1% Penicillin-Streptomycin (Invitrogen, Cat. 15140-122), 200 µg/ml Hygromycin B (Invitrogen, Cat. 10687-010), Blasticidin 5 µg/ml, (Invitrogen, Cat. R210-01), 4 µg/ml doxycycline (Clontech, Cat. 631311), 50 µl per well of 384 well plates (Greiner; Cat. 781091) and grown at 37° C. with 5% CO2. After overnight incubation, 10 µl/well of dilution series of the test compounds were added in quadruplicates and plates were further incubated overnight at 37° C. with 5% CO2. Cells were washed once with FACS buffer (PBS containing 1% FBS, 2 mM EDTA and 0.05% NaN3), harvested in FACS buffer with 0.5 µg/ml propidium iodide (Sigma, Cat. P4864) and analyzed in a flow cytometer (CANTO^tm II, BD Biosciences) equipped with high throughput sampler. Live HEK#354 cells were gated as propidium iodide negative population and analyzed for expression of Fpn-GFP. MFI of Fpn-GFP of > 2000 live cells for each compound dilution was calculated using FlowJo (Tree Star’s, Oregon) and the potency of the Fpn-inhibitors to induce internalization and degradation of Fpn-GFP was calculated as described for the hepcidin internalization assay. EC50 data of the Compounds (II) and (II′) tested in the ferroportin internalization and degradation assay by FACS are listed in Table 4. The average EC50 value of hepcidin in this assay is 0.004 ± 0.002 µM.

[3] = HEK-293 cell line #354, FACS, tested as 3HCl-salts, n=2, read-out: Fpn internalization and degradation (HEK354 FACS) IC50
[4] = average of multiple measurements, HEK-293 #354 FACS, 3HCl-salts, read-out: EC50 (ferroportin internalization and degradation assay)

Structure (SMILES) | IC50 [1] [nM] | EC50 [1] [nM] | DC50 [2, 3] [nM] | DC50 [2, 4] [nM]
O=C(NCc1ncccc1F)c1coc(CCNCCc2nc3ccccc3[nH]2)n1 [Compound (II)] | 156 | 156 | 119 | 119
O=C(NCc1ncccc1Br)c1coc(CCNCCc2nc3ccccc3[nH]2)n1 [Compound (II′)] | 168 | 168 | 161 | 161
CC[C@H](C)[C@@H]1NC(=O)[C@@H](NC(=O)[C@@H](NC(=O)[C@@H]2CCCN2C(=O)[C@H](Cc2ccccc2)NC(=O)[C@H](Cc2c[nH]cn2)NC(=O)[C@@H](NC(=O)[C@@H](N)CC(=O)O)[C@@H](C)O)[C@@H](C)CC)CSSC[C@@H](C(=O)N[C@@H](CCCCN)C(=O)N[C@H](C(=O)O)[C@@H](C)O)NC(=O)[C@@H]2CSSC[C@@H]3NC(=O)[C@@H]4CSSC[C@H](NC(=O)[C@H](Cc5ccccc5)NC1=O)C(=O)N[C@@H](CSSC[C@H](NC(=O)[C@H](CCCCN)NC(=O)[C@H](CO)NC(=O)[C@H](CCCNC(=N)N)NC(=O)[C@H](Cc1c[nH]cn1)NC3=O)C(=O)NCC(=O)N[C@@H](CCSC)C(=O)N2)C(=O)NCC(=O)N4 [hepcidin, reference compound] | 39 | – | 6 | –

Reference: patent US20230212159A1, “Process for the Production of Ferroportin Inhibitors” (Vifor (International) AG, priority 2020, published 2023)
